Assay results reported in PubChem BioAssay (NCI).
Values joined by “and” are separate entries in the source; they are usually repeats but may differ in a detail not shown here. Equal entries are not always repeated.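 These data come from cells grown in 96-well plates and exposed to compound for 48 hours at five concentrations. GI50 marks 50% less growth. TGI is the concentration that stops growth completely.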

Experiments:
Test in all cases: NCI anticancer screen, dose series, 48 h
DU-145 prostate = tested on: DU-145 prostate
MALME-3M melanoma = tested on: MALME-3M melanoma
SK-MEL-28 melanoma = tested on: SK-MEL-28 melanoma
HCC-2998 colon = tested on: HCC-2998 colon
K-562 leukemia = tested on: K-562 leukemia
CCRF-CEM leukemia = tested on: CCRF-CEM leukemia
UACC-257 melanoma = tested on: UACC-257 melanoma
SF-268 CNS = tested on: SF-268 CNS
786-0 renal = tested on: 786-0 renal
NCI-H460 lung = tested on: NCI-H460 lung

Compound	GI50 (DU-145 prostate)	TGI (DU-145 prostate)	GI50 (MALME-3M melanoma)	TGI (MALME-3M melanoma)	GI50 (SK-MEL-28 melanoma)	TGI (SK-MEL-28 melanoma)	GI50 (HCC-2998 colon)	TGI (HCC-2998 colon)	GI50 (K-562 leukemia)	TGI (K-562 leukemia)	GI50 (CCRF-CEM leukemia)	TGI (CCRF-CEM leukemia)	GI50 (UACC-257 melanoma)	TGI (UACC-257 melanoma)	GI50 (SF-268 CNS)	TGI (SF-268 CNS)	GI50 (786-0 renal)	TGI (786-0 renal)	GI50 (NCI-H460 lung)	TGI (NCI-H460 lung)
Cc1noc(C)c1-c1cnc2c(-c3ccc(C(=O)O)cc3)cn([C@@H](C)c3ccccn3)c2c1	22.6 µM	> 100 µM	0.635 µM	> 100 µM	5.44 µM	> 100 µM	0.966 µM	10.9 µM	0.964 µM	> 100 µM	2.73 µM	> 100 µM	1.62 µM	> 100 µM	9.04 µM	> 100 µM	2.13 µM	> 100 µM	6.07 µM	> 100 µM
Oc1c(O)c(Cl)c(Cl)c(Cl)c1Cl	7.1 µM	> 100 µM	2.83 µM	13.4 µM	4.99 µM	37.2 µM	16.3 µM	30.7 µM	3.49 µM	> 100 µM	2.73 µM	27.7 µM	2.92 µM	9.6 µM	3.09 µM	> 100 µM	7.98 µM	33 µM	2.62 µM	13.3 µM
COc1cc(NC(C)CCCNC(C)C)c2ncccc2c1OC (stereo not drawn)	> 100 µM	> 100 µM	42.3 µM	> 100 µM	> 100 µM	> 100 µM	> 100 µM	> 100 µM	32.8 µM	> 100 µM			> 100 µM	> 100 µM	> 100 µM	> 100 µM	> 100 µM	> 100 µM	34.1 µM	> 100 µM
CCN(CC)c1nc(NC2CCCCC2)c2nc(N(CC)CC)nc(NC3CCCCC3)c2n1		> 100 µM		> 100 µM		> 100 µM		> 100 µM		> 100 µM		> 100 µM				> 100 µM		> 100 µM		> 100 µM
O=C(O)Cn1ccc2ccccc21	> 100 µM	> 100 µM	> 100 µM	> 100 µM	> 100 µM	> 100 µM	> 100 µM	> 100 µM			> 100 µM	> 100 µM	> 100 µM	> 100 µM	> 100 µM	> 100 µM	> 100 µM	> 100 µM	> 100 µM	> 100 µM
Nc1ccccc1C(=O)NC(=O)Nc1ccc(Oc2ncc(Br)cn2)c(Cl)c1		1.52 µM		11.6 µM		18.3 µM		0.19 µM	0.00659 µM	18 µM	0.0249 µM and < 0.0246 µM	1.9 µM		25.3 µM		18.9 µM		3.58 µM		3.53 µM
CCOc1ccc(C(C)=O)cc1NC(=O)c1cccc(-c2nnn(CC)n2)c1	1.07 µM	> 100 µM	11.4 µM	63.9 µM	4.75 µM	> 100 µM	1.71 µM	> 100 µM	0.454 µM	> 100 µM	0.937 µM	> 100 µM			0.901 µM	> 100 µM	6.25 µM	74.2 µM	0.423 µM	> 100 µM
C=C(CN1c2ccccc2Sc2ccccc21)c1ccc(C(=O)Nc2ccccc2N)cc1	> 100 µM	> 100 µM	> 23 µM	> 100 µM	43.5 µM	> 100 µM	14.6 µM	> 86.3 µM	2.47 µM	> 100 µM	0.101 µM		67.6 µM	> 100 µM	25.7 µM	> 100 µM	0.832 µM	> 100 µM	17.7 µM	> 100 µM
Cc1c(C)c2c(c(C)c1OCC(=O)O)CC[C@@](C)(CCC[C@@H](C)CCC[C@@H](C)CCCC(C)C)O2	75.7 µM	147 µM	66.5 µM	130 µM	62.6 µM	129 µM	102 µM	224 µM	62.5 µM	287 µM	27.1 µM	189 µM	77.2 µM	183 µM	87.8 µM	196 µM	93.3 µM	185 µM	55.3 µM	168 µM
O=C(/C=C\n1cnc(-c2cc(C(F)(F)F)cc(C(F)(F)F)c2)n1)N1CC(F)(F)C1	1.69 µM	12.1 µM	1.14 µM	5.84 µM	0.46 µM	4.81 µM	0.729 µM	4.42 µM	0.43 µM	> 25 µM	0.407 µM	> 18.8 µM	1.17 µM	> 13.1 µM	0.254 µM	2.48 µM	0.387 µM	6.12 µM	0.207 µM	3.07 µM
Cn1cc(C2=C(c3ccccc3C(F)(F)F)C(=O)NC2=O)c2ccccc21	12.5 µM	> 25 µM	> 18.5 µM	> 25 µM	14.6 µM	> 25 µM	> 19.6 µM	> 25 µM	8.82 µM	> 25 µM	4.86 µM	> 25 µM	9.59 µM	> 22.5 µM	11.4 µM	> 25 µM	9.16 µM	> 25 µM	9.18 µM	> 25 µM
COc1ccc2[nH]c(C(=O)OCc3ccc4cccc(O)c4n3)cc2c1	1.53 µM	2.93 µM	1.52 µM	2.89 µM	1.61 µM	3 µM	1.43 µM	2.92 µM	0.283 µM	2.66 µM	0.148 µM	1.11 µM	2.02 µM	5.68 µM	1.65 µM	3.13 µM	1.68 µM	3.31 µM	2.24 µM	5.41 µM
OC(COc1ccccc1)CN1CCCCC1 (stereo not drawn)		> 100 µM		> 100 µM		> 100 µM		> 100 µM		> 100 µM		> 100 µM		> 100 µM		> 100 µM		> 100 µM		> 100 µM
O=C(Nc1ccc2c(c1)OCCO2)C(=O)c1c[nH]c2ccccc12	1.95 µM	11.8 µM	10.5 µM	> 100 µM	5.6 µM	> 100 µM	1.37 µM	> 100 µM	0.369 µM	> 100 µM	1.08 µM	> 100 µM	> 23.5 µM	> 100 µM	1.98 µM	37.5 µM	4.28 µM	44.9 µM	1.3 µM	> 100 µM
COc1cc(-c2nccc3cc4c(cc23)OCO4)cc(OC)c1OC	3.87 µM	> 100 µM	26.9 µM	> 100 µM	16.6 µM	> 100 µM	8.68 µM	51.7 µM					> 100 µM	> 100 µM	5.56 µM	> 100 µM	7.65 µM	> 100 µM	3.83 µM	> 100 µM
COc1cc(Nc2ncnc(Nc3ccc4c(n3)NC(=O)C(C)(C)O4)n2)cc(OC)c1OC	2.03 µM	> 100 µM	8.69 µM	> 100 µM	> 23.9 µM	> 100 µM	> 100 µM	> 100 µM	3.55 µM	> 100 µM	3.73 µM	> 100 µM	3.26 µM	> 100 µM	0.544 µM	> 100 µM	0.492 µM	> 22.6 µM	3.2 µM	> 100 µM
Cn1cncc1-c1c(F)cncc1NC(=O)c1c(N)nn2cc(F)cnc12	0.803 µM	49.3 µM	5.16 µM	68.5 µM	6.52 µM	86.8 µM	0.0612 µM	> 100 µM	0.389 µM	> 100 µM	0.0723 µM	22.8 µM	20.9 µM	> 100 µM	4.04 µM	46.2 µM	0.338 µM	> 100 µM	1.27 µM	> 100 µM
CN(C)CCCCCNc1c2ccccc2nc2cccc([N+](=O)[O-])c12		0.00346 µM		0.00506 µM		0.0113 µM	0.00237 µM	0.0126 µM	0.00212 µM	> 0.0945 µM		> 0.1 µM and 0.0102 µM		> 0.0231 µM		0.0125 µM and 0.018 µM		0.00798 µM	0.00145 µM	
NC(CSC(c1ccccc1)(c1ccccc1)c1ccc(F)cc1)C(=O)O (stereo not drawn)	0.815 µM	4.05 µM	2.39 µM	> 100 µM	6.04 µM	> 100 µM	0.438 µM	11.5 µM	0.356 µM		0.289 µM	> 100 µM	0.635 µM	> 100 µM	0.505 µM	35.1 µM	2.92 µM	> 78.9 µM	0.336 µM	14.9 µM
COc1ccc(-c2nsc3c2NC(=O)CC3c2cccc(Cl)c2)cc1 (stereo not drawn)	3.3 µM	> 100 µM	6.59 µM	> 100 µM	4.54 µM	> 100 µM	11.5 µM	> 100 µM	0.399 µM	> 100 µM	2.44 µM	> 100 µM	10.8 µM	> 100 µM	8.04 µM	> 100 µM	9.39 µM	> 100 µM	1.22 µM	> 100 µM
COc1ccc(-c2nn3ncccc3c2-c2ccnc(Nc3ccc4c(c3)OCCO4)n2)cc1	8.19 µM	> 25 µM	12.5 µM	> 25 µM	16.9 µM	> 25 µM	11 µM	> 25 µM	9.06 µM	> 25 µM	6.07 µM	> 25 µM	9.07 µM	> 25 µM	11.1 µM	> 25 µM	8.38 µM	> 25 µM	8.74 µM	> 25 µM
Cc1nc(Sc2nc3ccc([N+](=O)[O-])cc3s2)sc1C	3.99 µM	15.4 µM	1.4 µM	3.9 µM	1.77 µM	4.76 µM	12.5 µM	25.2 µM	0.429 µM	8.97 µM	0.477 µM	6.18 µM	4.62 µM	16.4 µM	1.7 µM	10.9 µM	1.78 µM	6.1 µM	0.894 µM	6.26 µM
CCOC(=O)C#Cc1c(C(=O)OCC)nnn1[C@@H]1O[C@H](CO)[C@H]2OC3(CCCCC3)O[C@H]21	3.89 µM	13.6 µM	1.87 µM	3.76 µM	2.06 µM	4.51 µM	18 µM	32.8 µM	1.67 µM	7.97 µM	1.62 µM	4.85 µM	2.93 µM	7.52 µM	14.3 µM	34.6 µM	2.88 µM	8.62 µM	13.4 µM	28.9 µM
CC(=O)O[C@H](C[C@H](C(C)C)N(C)C(=O)[C@@H](NC(=O)[C@H]1CCCCN1C)C(C)C)c1cccc(C(=O)N[C@@H](Cc2ccccc2)C[C@H](C)C(=O)O)n1	0.0263 µM	1.49 µM	0.0164 µM	> 25 µM			0.0544 µM	> 25 µM	0.0103 µM	> 25 µM	0.0175 µM	> 25 µM			0.05 µM	> 25 µM	0.0463 µM	> 25 µM	0.0297 µM	> 13.4 µM
C[C@H](NC(=O)c1c(C(F)F)nn(C)c1Oc1cccc(C(F)(F)F)c1)c1ccc(C(=O)O)cc1	> 100 µM	> 100 µM	> 100 µM	> 100 µM	> 100 µM	> 100 µM	> 100 µM	> 100 µM			> 100 µM	> 100 µM	> 100 µM	> 100 µM	> 100 µM	> 100 µM	> 100 µM	> 100 µM	> 100 µM	> 100 µM
COc1cc2nc(-c3cccc4cccnc34)nc(NC3CCN(Cc4ccccc4)CC3)c2cc1OC	1.28 µM	2.59 µM	1.83 µM	3.51 µM	1.82 µM	3.6 µM	1.72 µM	3.16 µM			0.576 µM	2.83 µM	2.07 µM	4.1 µM	1.14 µM	2.98 µM	1.2 µM	2.69 µM	0.351 µM	1.23 µM
